# Experimental data: patent US9539223B2, “Methods for treating bacterial infections” (Neoculi Pty Ltd., priority 2013, dated 2017)
# Where “and” joins values, the source holds several entries; their conditions need not be identical. Identical values can stand only once. Like-named read-outs stand apart in the source and are kept apart here.
# Columns and labels:
# [1] = Visual analysis of solubility in diluents and media; type: physicochemical
# S. pneumoniae = test: MBC, pneumococcal isolates; type: cell-based, Streptococcus pneumoniae; settings: isolate WCH16
# Procedure: [Micro-broth dilutions and 96-well trays are prepared by the following method: 90 μL of 4% LHB: CAMHB is aliquotted into all wells using a multichannel pipette. 90 μl of working antimicrobial stocks were no serial diluted down the tray by a 1:2 dilution. Negative broth controls and dilution control were taken into account when planning the set up of a 96-well tray.] 10 μL of bacterial suspension was then added to the appropriate wells in the 96 well tray. Appropriate positive (no antimicrobial), negative (no antimicrobial or bacteria) and negative dilution (a serial dilution control of antimicrobial and broth) controls were included in each assay. […] The MBC was determined by a 99.95% inhibition of S. pneumoniae, taking into account the dilution factor. MICs and MBCs were determined in quadruplicate and the mode was taken as the representative value. The MIC50, MIC90 and MIC range and MBC50, MBC90 and MBC range were determined according to CLSI standards. The MIC50 and MIC90, or MBC50 and MBC90, are defined by the lowest concentrations which, when all the MICs and MBCs of the isolates are arranged from lowest to highest, inhibited the 50th and 90th percentile of the total amount of isolates, respectively.
# S. pneumoniae strain D39 [2] = test: MBC time kill studies (relative MBC at time points); type: cell-based, Streptococcus pneumoniae
# Description: MBC kill kinetics assays involved the preparation of three 96-well microtitre trays.
# S. pneumoniae strain D39 [3] = test: Macro-broth dilution time kill studies; type: cell-based, Streptococcus pneumoniae
# Procedure: Bacterial suspensions and working antibiotic stocks were prepared as described above. [For preparing macro-broth dilutions, 20 ml tubes were filled each with 9 mls of 4% LHB:CAMHB. 9 mls of a working antimicrobial stock was diluted 1:2 when added to one of the tubes, and then serial diluted down from a high to low concentration of antimicrobial. 1 ml of S. pneumoniae bacterial suspension was added to the appropriate tubes, including the positive control. […] At every 2-3 hrs during the first 12 hrs of growth and then at 24 hrs and 48 hrs, 50 μL of each bacterial suspension was spread plated onto HBA and incubated at 37° C. with 5% CO2 for 16-24 hrs.]
# Cultures were incubated at 37° C. in 5% CO2 with gentle manual tilting every 10 mins for the first 12 hrs. Viable counts from 50 μL aliquots of each concentration were read following incubation at 37° C. in 5% CO2 for 24 hrs. The pH of each sample was measured at specific time points using pH indicator strips. Confluent growth was defined when more than 1000 colonies were counted per plate. A bactericidal effect was defined as a 3-log 10-unit reduction (99.9%) of the original cell suspension determined at 24 hrs for each concentration.
# [4] = test system: Staphylococcus pseudintermedius; test: MBC testing (CLSI), S. pseudintermedius isolates; type: cell-based
# Procedure: After the MICs were determined, the minimum bactericidal concentrations were performed to determine if these compounds are bacteriostatic or bacteriocidal.
# [5] = test system: Staphylococcus spp. Strain MK1; test: Checkerboard synergy study, Staphylococcus spp. MK1; type: cell-based
# Procedure: Firstly, the MIC of each antibiotic alone was determined in accordance to CLSI standard guidelines.
# According to the checkerboard guidelines, Synergy (S) was defined as an FICI<0.5. No effect (NE) was defined as 0.5<FICI<4. Antagonism (A) was defined as a 4<FICI.
# S. aureus KC01 = test: Kill kinetics assay, S. aureus KC01; type: cell-based, Staphylococcus aureus
# Procedure: (§1) S. aureus KC01 and E. faecalis USA01, not determined to be MRSA or VRE, respectively, were grown overnight on Columbia SBA at 37° C. A few colonies of bacteria were then suspended in CAMHB (cation-adjusted Mueller Hinton broth) and adjusted to OD600 of 0.08 to 0.10. The bacterial suspension was diluted 1:10. […] The tubes were incubated at 37° C., with constant shaking. In order to determine the number of viable bacteria present at various time points, a 100 μL aliquot was removed from each tube and diluted. Then, 100 μL of each dilution were spread onto colony count agar, in duplicate, and incubated for 48 h at 37° C. After 24 h the numbers of colonies present on each plate were counted and therefore the number of viable bacteria present in the original suspension enumerated. Plates were re-checked after 48 hours.
# E. faecalis USA01 [6] = test: Kill kinetics assay, E. faecalis USA01; type: cell-based, Enterococcus faecalis
# Procedure: as §1
# [7] = cited from earlier work
# S. aureus KC01 and MK01 = test: MBC test (CLSI), non-MRSA S. aureus isolates
# E. faecalis USA01 [8] = test: MBC test (CLSI), non-VRE E. faecalis isolate
# [9] = test system: methicillin-resistant and methicillin-susceptible Staphylococcus aureus; test: Minimum bactericidal concentration, S. aureus clinical isolates
# Description: The MBC was defined as the lowest drug concentration at which 99.95% of the original inoculum was eliminated.
compound,measurement,setting,value
"N=C(N/N=C/c1ccc(Cl)cc1)N/N=C/c1ccc(Cl)cc1 [NCL812, 1,2-bis[(E)-(4-chlorophenyl)methylideneamino]guanidine]",solubility,[1]; DMSO,soluble
same,appearance when dissolved,[1]; cation-adjusted Mueller-Hinton II broth (CAMHB),cloudy solution
same,visual solubility,[1]; diluent CAMHB,Turbid
same,visual solubility,[1]; diluent DMSO,Transparent
same,visual solubility,[1]; diluent PBS,Precipitate
same,visual solubility,[1]; media 4% LHB:CAMHB,Turbid
same,visual solubility,[1]; media 10% horse serum-supplemented broth,Precipitate
same,MBC,S. pneumoniae,autolysis
same,consistent bactericidal effect elicited after,"S. pneumoniae strain D39 [2]; from initial exposure, relative MBC over 48 hr",6 h
same,decrease in MBC,S. pneumoniae strain D39 [2]; within 5 hrs,~3 fold
same,growth,S. pneumoniae strain D39 [3]; 2 μg/ml NCL812,Consistent confluent growth
same,appeared to be inactivated at,"S. pneumoniae strain D39 [3]; 4 μg/ml and 8 μg/ml, post-exposure",11 h
same,time to eliminating bacterial growth,S. pneumoniae strain D39 [3]; between 16 μg/ml and 64 μg/ml NCL812,≤ 8 h
same,activity based on minimal bactericidal concentrations (MBC),[4],bactericidal
same,MIC,"[5]; read-out: NCL812 MIC Alone, Staphylococcus spp. Strain MK1",2 µg/mL
same,NCL812 MIC With Antibiotic,[5]; with Penicillin G,2 µg/mL
same,NCL812 MIC With Antibiotic,[5]; with Sulfamethoxazole,1 µg/mL and 2 µg/mL
same,reduction in bacterial numbers from initial numbers,S. aureus KC01; 2 h time point,≥ 2.5 log10
same,reduction in bacterial numbers in comparison to the control,S. aureus KC01; 2 h time point,> 3 log10
same,reduction in bacterial numbers,S. aureus KC01; 6 h incubation,≥ 2 log10
same,numbers of bacteria compared to the control,S. aureus KC01; after 24 h,not significantly different to the control
same,rise in bacterial numbers,"E. faecalis USA01 [6]; 32 and 64 μg/mL, until the 6 h time point",~1 log10
same,reduction in CFU/mL compared to the growth control,E. faecalis USA01 [6]; 2 h,2 log10
same,reduction in CFU/mL compared to the original bacterial numbers,E. faecalis USA01 [6]; 2 h,greater than 1 log10
same,bacterial numbers compared to the growth control,"E. faecalis USA01 [6]; 24 h, all concentrations",increased to almost the same level as the growth control
same,solubility,[7]; PBS,precipitation
same,solubility,"[7]; water containing 4% DMSO, following initial dilution in 100% DMSO",complete solubility
same,MBC test: growth on Sheep Blood Agar,"S. aureus KC01 and MK01; S. aureus KC01, 2 μg/ml",+
same,MBC test: growth on Sheep Blood Agar,"S. aureus KC01 and MK01; S. aureus KC01, 4 μg/ml",0 and +
same,MBC test: growth on Sheep Blood Agar,"S. aureus KC01 and MK01; S. aureus KC01, 8 μg/ml",0 and +
same,MBC test: growth on Sheep Blood Agar,"S. aureus KC01 and MK01; S. aureus KC01, 16 μg/ml",0
same,MBC test: growth on Sheep Blood Agar,"S. aureus KC01 and MK01; S. aureus KC01, 32 μg/ml",0
same,MBC test: growth on Sheep Blood Agar,"S. aureus KC01 and MK01; S. aureus KC01, 64 μg/ml",0
same,MBC test: growth on Sheep Blood Agar,"S. aureus KC01 and MK01; S. aureus KC01, […]",0
same,MBC test: Number of Bacteria Growing after 24 hours per ml of sample,"S. aureus KC01 and MK01; S. aureus MK01, 2 μg/ml",5 CFU/ml
same,MBC test: growth on Sheep Blood Agar,"S. aureus KC01 and MK01; S. aureus MK01, 2 μg/ml",0
same,MBC test: growth on Sheep Blood Agar,"S. aureus KC01 and MK01; S. aureus MK01, 4 μg/ml",0
same,MBC test: growth on Sheep Blood Agar,"S. aureus KC01 and MK01; S. aureus MK01, 8 μg/ml",0
same,MBC test: growth on Sheep Blood Agar,"S. aureus KC01 and MK01; S. aureus MK01, 16 μg/ml",0 (N) and 0
same,MBC test: growth on Sheep Blood Agar,"S. aureus KC01 and MK01; S. aureus MK01, 32 μg/ml",0 (N) and 0
same,MBC test: growth on Sheep Blood Agar,"S. aureus KC01 and MK01; S. aureus MK01, 64 μg/ml",0 (N) and 0
same,MBC test: Number of Bacteria Growing after 24 hours per ml of sample,E. faecalis USA01 [8]; 4 μg/ml,488 CFU/ml
same,MBC test: growth on Sheep Blood Agar,E. faecalis USA01 [8]; 4 μg/ml,+
same,MBC test: growth on Sheep Blood Agar,E. faecalis USA01 [8]; 8 μg/ml,+
same,MBC test: growth on Sheep Blood Agar,E. faecalis USA01 [8]; 16 μg/ml,+
same,MBC test: Number of Bacteria Growing after 24 hours per ml of sample,E. faecalis USA01 [8]; 32 μg/ml,7 CFU/ml
same,MBC test: growth on Sheep Blood Agar,E. faecalis USA01 [8]; 32 μg/ml,+
same,MBC test: Number of Bacteria Growing after 24 hours per ml of sample,E. faecalis USA01 [8]; 64 μg/ml,1 CFU/ml
same,MBC test: growth on Sheep Blood Agar,E. faecalis USA01 [8]; 64 μg/ml,+
same,MBC test: growth on Sheep Blood Agar,E. faecalis USA01 [8]; […],+
same,MBC range,[9],4 to 16 µg/mL
same,isolates with MBC equivalent to the MIC,[9],83.33%
